Assay type in all cases: cell-based
For one experiment, the system named is C2C12 cells. Nature of the experiment: C2C12 myogenic assay. Also noted: key to myogenic assay: + indicates that the compound had an effect; -: − indicates that there was no significant effect in the respective assay. The text has this: To corroborate their status as Notch inhibitors, we tested four of the five compounds (A, C, D, E) in an orthogonal assay for Notch function. Notch signalling plays an important role in myogenic differentiation, and blocking Notch signalling promotes myogenic differentiation in the myoblast cell line C2C12[27] (Fig. 5A). C2C12 cells can be maintained as myoblasts but upon serum starvation spontaneously differentiate to MYH4-positive multinucleated myotubes, a process which is accelerated by Notch blockade.
8000 C2C12 cells were seeded on gelatin (0.1%, Sigma-Aldrich, cat #G2500) coated cover slides (BD Bioscience) and cultivated in proliferation medium. For gelatin coating, 8-well cover slide chambers (BD Bioscience) were incubated for 60 min with 0.1% gelatin in PBS. The remaining liquid was aspirated, and gelatin was allowed to dry for 24 h. Cover slides were stored at 4 °C until use. Upon reaching 85% confluence cell culture medium was exchanged to differentiation medium to enhance differentiation into myocytes/myotubes. Cells were then treated with 10 µM of the respective compound for five days and DMSO-treated cells served as a base-line control. Next, cells were washed with 1 × cold PBS (ThermoFisher, cat #10010023) fixed with 4% paraformaldehyde (PFA, Sigma-Aldrich, cat #1.00496) in PBS for 10 min at room temperature and washed again with 1 × PBS. Fixed cells were either stored at 4 °C in PBS or directly processed for immunocytochemistry staining: For immunocytochemistry, cells were permeabilized for 10 min in 0.1% TritonX-100 / PBS, then washed in PBS and unspecific bindings sites were blocked in protein free blocking solution (DAKO, cat # × 0909) for 30 min at room temperature, followed by two times washing in PBS. Then, cells were incubated with primary antibody MYH4 (ThermoFisher) in blocking solution and 0.1% TritonX-100 in PBS for 1 h at room temperature. Next, cells were washed three times in PBS and incubated with secondary Alexa fluorophore coupled antibody (Invitrogen) in a 1:400 dilution. Labeling of F-actin filaments was conducted by phalloidin-TRITC (Sigma-Aldrich, cat # P1951) in a 1:2500 dilution. Cells were washed three times in PBS and incubated with DAPI (BD Bioscience cat # 564907) for 5 min at room temperature to stain DNA/nuclei. Finally, slides were fixed with mounting medium (ProLong Antifade mounting medium, ThermoFisher, cat #P36934). Bright field and immunocytochemistry images were taken using the SP8 LSM (Leica) at different magnifications and images were recorded as Z-stacks. Images were processed using the FijI (ImageJ) software. As controls, wells with and without differentiation medium were also stained to set the baseline and contrast the differences and stainings of cells with only secondary antibodies were used as negative controls to assess cross-reactivity and background staining. For calculating the MYH4 median fluorescence intensity (MFI) images have been converted into 8-bit greyscale and a standard color threshold was applied (ImageJ). Next, MFI signals per area were measured using ImageJ and divided by the median background intensity (MBI). The nuclei fusion index was calculated as the ratio of nuclei fused per area divided by the total number of nuclei in the field. A minimum of three images has been recorded for the calculations, and two replicate experiments were conducted. For calculations of MFI and fusion index see Supplemental Table 5.

For the next experiment, the system named is MDA-MB-231 cells. Description: Three dose response gene expression analysis (qRT-PCR). To be noted: 0.1, 1 and 10 µM, 24 h. How it is done:
(§1) Total RNA from cell lines was isolated using the RNeasy Mini kit (cat #74104, Qiagen), according to the manufacturer’s instructions. qRT-PCR was performed as described elsewhere[51] with some minor modifications: RNA was reverse transcribed to cDNA using iScript Reverse Transcription Supermix (cat # 1708841, Bio-rad). cDNA was then diluted 1:5 in nuclease free H20. qRT-PCR was performed on a C1000 Touch thermal cycler (Bio-rad) and gene expression was detected with SsoAdvanced Universal SYBR Green Supermix (cat # 1725274, Bio-rad). Gene expression was determined by normalizing to GAPDH mRNA expression levels and fold expression change was calculated using the ΔΔCT method (ΔΔCT = ΔCt sample − Δct control). Primers used in qPCR are shown in Supplemental Table 9.
(§2) Adherent breast cancer cells were seeded in 24-well cell culture plates (ThermoFisher, Nunc, Delta surface, cat #144530) and T-ALL cells growing in suspension (Jurkat, RPMI-8402) were seeded in non-adherent 24-well plates (ThermoFisher, Nunc, cat […]). 60.000 cells were seeded and treated with 0.1, 1 and 10 µM of each compound. […] Cells were harvested 24 h post treatment and RNA isolation and gene expression analysis (qRT-PCR) was performed as described above.
A general note: In qPCR the cycle at which signal appears reflects the starting amount.

The test system of experiment [1] is T-ALL cells (Jurkat, RPMI-8402). The experiment is described as above. The settings on record: T-ALL cells; 0.1, 1 and 10 µM, 24 h. How it is done: as §1, §2
The next experiment concerns NOTCH1. Nature of the experiment: Western blot analysis of S3-cleaved NOTCH1 (a-N1-V1744). To be noted: Western blot quantification, Supplemental Figure 4K. How it is done:
Cells were washed in ice-cold PBS and incubated for 30 min on ice with RIPA cell lysis buffer (Thermofisher, cat #89900) containing protease and phosphatase inhibitors (Thermofisher, cat #78442), scraped off and homogenized using a 25G syringe, and subsequently centrifugated for 10 min at > 13,000xg. […] After electrophoresis, gels were placed directly onto a TransBlot Turbo PVDF or nitrocellulose membrane (Bio-rad, cat #1704157 and cat #1704159) and transferred using the “HIGH MW” protocol (Bio-Rad). Subsequently, membranes were blocked for 1 h at room temperature using Clear Milk Blocking Buffer (ThermoFisher, cat #37587) supplemented with 0.1% Tween20 (Sigma-Aldrich, cat #P1379). Detection of antibody binding was performed by using Clarity Western ECL-Substrate (Bio-rad, cat #1705060S). Beta-Actin protein signals were used as a loading control. Western blot membranes were in some experiments stripped after development (indicated in the figure in each respective case) by washing the membranes twice for 10 min in PBS, followed by incubation in membranes in western blot stripping buffer (ThermoFisher, cat #21059) for 30 min at room temperature and gentle agitation. Stripped membranes were washed twice with PBS and incubated for 30 min in blocking buffer before incubation with primary antibody. A list of all antibodies used in this study is provided in Supplemental Table 6. Uncropped western blot images are provided in […]. Protein expression levels of western blot bands were quantified using Fiji (V.2.16) with beta-Actin signals for normalisation (Supplemental Table 8). Uncropped western blot images are provided in Supplemental Fig. 10.
On the technique in general: Immunoblotting shows a protein as a band on a membrane.

The mark [2] stands for this setting: 10 µM, five days, Fig. 5, equals mean of the two '% of control' values of the 4th table.

The results in this text go back to PMC13242511, “Disrupting Notch signalling by a small molecule inhibiting dihydroorotate dehydrogenase activity” (Scientific Reports, 2026).

`NC(=O)c1c(NC(=O)NCc2cccnc2)sc2c1CCC2` [compound D]: the “expression of the differentiation marker MYH4” value with C2C12 cells (10 µM, five days) is on record as “did not produce elevated MYH4 levels”. Besides, in the experiment on C2C12 cells (setting [2]), the “MYH4 (MFI)” value was determined as 108.7 and the “fusion index, % of DMSO control” value stood at 153.2. For the same compound, the myogenic assay result in the experiment on C2C12 cells (summary Fig. 8E) was “-”. Also, in the experiment on MDA-MB-231 cells, the HES1 expression entry is listed as “downregulated”, the HES4 expression result is reported as “reduced” and the “transcript levels of the Notch ligand Jagged1” value is recorded as “reduced”. Besides, the “HES1 and c-MYC expression” value in experiment [1] is on record as “dose-dependent downregulation”. Also, in the experiment with NOTCH1, the “V1744 (activated N1) band intensity” value turned out to be 30696.5 and the “V1744 normalised to beta-actin signals” value stood at 1.2. In the experiment with NOTCH1 (DMSO = 1), the “V1744, DMSO as reference” value was 0.9101.
